Reference: US20200277373A1, “ANTI-TREM2 ANTIBODIES AND METHODS OF USE THEREOF” (Denali Therapeutics Inc., priority 2017, published 2020)

Columns and labels:
Format in all cases: cell-based
DAP12 alone = target: T1, DAP12 alone (Homo sapiens, UniProt O43914); experiment: Liposome stimulation pSyk AlphaLISA, HEK293 expressing DAP12 alone; settings: liposomes 30% lipid/70% PC (KLA 10%/90%), fold change over HBSS
T1 construct: expressed in transfected cells
Description: (§1) Lipids were purchased from Avanti Polar Lipids (Alabaster, Ala.) or Echelon Biosciences (Salt Lake City, Utah). Each screened lipid was resuspended in chloroform and added at 30 mole percent composition to 70 mole percent phosphatidylcholine (PC; 1,2-dioleoyl-sn-glycero-3-phosphocholine, Avanti Polar Lipids). Kdo2-Lipid A was added at a 10 mole percent composition with 90 mole percent PC. Lipid mixes were dried under nitrogen gas and resuspended in HBSS at a concentration of 4 mg/mL. Mixes were vortexed or briefly sonicated until resuspended, then bath sonicated for 1-5 minutes. Liposomes were used for 1-2 weeks. 3 independent batches of liposomes were used in experiments.
(§2) HEK293 cell lines overexpressing TREM2 and DAP12, mutant TREM2-R47H and DAP12, or DAP12 alone were plated in 96-well PDL-coated plates at a density of 40,000 cells per well and cultured for 36-48 hours until 90-100% confluent.
(§3) Cell culture medium was removed and cells were washed once with 200ul HBSS. Liposomes were diluted in HBSS in concentrations ranging from 0.03125 mg/mL to 2 mg/mL, then 50 μl was added to wells in 2-3 technical replicates per plate. Each plate contained HBSS negative control wells, 100% PC liposome control, 5 μg/mL agonist anti-TREM2 positive control (Abnova; Taiwan; # MAB2056), and 5 μg/mL mouse IgG3 isotype control (R&D Systems; Minneapolis, Minn.; # MAB007). Stimuli were incubated with cells for 5 minutes at 37° C., 5% CO2, liposomes were removed, and plates were frozen at −80° C.
(§4) Cells were lysed for 30 minutes to 1 hour on ice in 50 ul/well Cell Lysis Buffer (Cell Signaling Technology; Danvers, Mass.; #9803) with 1 mM PMSF. AlphaLISA SureFire Ultra p-Syk Tyr525/526 assay kit (PerkinElmer, ALSU-PSYK-A10OK) was used to measure pSyk levels in lysate as per manufacturer protocol. 10 μl lysate was added to 384-well OptiPlates (PerkinElmer; #6007290) and an EnVision Multilabel Plate Reader (PerkinElmer) was used to measure AlphaLISA fluorescence.
(§5) PSyk AlphaLISA fluorescence was converted to a log 2 scale. Fluorescence values from liposomes and controls were each subtracted from average fluorescence values from HBSS stimulated wells on the same plate (log 2(liposome)−log 2(HBSSave)=log 2(signal)). The result was converted back to a standard scale to measure fold change (2^log 2(signal)=fold change). Technical replicate fold changes values were averaged to obtain the fold change over background listed (pSyk FOB). Graphs represent values from independent experiments or individual human donors. Results from the screen on the HEK293 overexpressing cell lines are shown in Table 9 below and in FIG. 8A-8B. HEK293 results showing specificity for TREM2 over DAP12 expressed alone can be used to extrapolate which lipid species are likely acting as TREM2 ligands on human macrophages.

R47H TREM2 mutant = target: T2, R47H TREM2 mutant (Homo sapiens, UniProt Q9NZC2, R47H); experiment: Liposome stimulation pSyk AlphaLISA, HEK293 overexpressing TREM2-R47H and DAP12; settings: liposomes 30% lipid/70% PC (KLA 10%/90%), fold change over HBSS
T2 construct: expressed in transfected cells
T2 sequence (Q9NZC2 19-230 R47H): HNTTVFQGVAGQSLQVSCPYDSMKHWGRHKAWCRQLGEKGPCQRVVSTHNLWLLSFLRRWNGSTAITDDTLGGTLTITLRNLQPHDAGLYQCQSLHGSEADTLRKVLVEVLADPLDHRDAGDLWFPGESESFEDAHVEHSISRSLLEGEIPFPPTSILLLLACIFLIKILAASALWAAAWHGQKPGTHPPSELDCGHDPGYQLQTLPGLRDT
T2 sequence (O43914 22-113 partner): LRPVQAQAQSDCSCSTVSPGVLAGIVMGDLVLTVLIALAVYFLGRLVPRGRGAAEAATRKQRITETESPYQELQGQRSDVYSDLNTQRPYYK
Description: as §1, §2, §3, §4, §5

[1] = tested on: primary human macrophages; experiment: Liposome stimulation pSyk AlphaLISA, primary human macrophages; settings: liposomes 30% lipid/70% PC (KLA 10%/90%)
Description: as §1
10 mL human blood was obtained from Blood Centers of the Pacific. Monocytes were extracted using RosetteSep Human Monocyte Enrichment Cocktail ([…] Technologies Inc.; Vancouver, BC; #15068) as per manufacturer protocols. Density gradient was performed with Ficoll-Paque Premium (GE Healthcare Life Sciences; Pittsburgh, Pa.; #17-5442-02). Isolated monocytes were resuspended at ˜1-1.3 million cells/mL and cultured for 5-6 days in RPMI, 10% Hyclone Fetal Bovine Serum, and penicillin/streptomycin supplemented with 50 ng/mL human M-CSF (Gibco, # PHC9501) in T175 tissue culture treated flasks. M-CSF was replenished every 2-3 days. Cells were washed once with PBS, 15 mL fresh medium was added, and cells were harvested by scraping. Cells were cultured overnight at a density of 100,000 cells per well on tissue culture treated 96-well plates supplemented with 10-25 ng/mL M-CSF.
as §3, §4, §5

TREM2 = target: T3, TREM2 (Homo sapiens, UniProt Q9NZC2); experiment: Liposome stimulation pSyk AlphaLISA, HEK293 overexpressing TREM2 and DAP12; settings: liposomes 30% lipid/70% PC (KLA 10%/90%), fold change over HBSS
T3 construct: expressed in transfected cells
T3 sequence (Q9NZC2 19-230): as the sequence (Q9NZC2 19-230 R47H) above, with H29R counted along it
T3 sequence (O43914 22-113 partner): as the sequence (O43914 22-113 partner) above
Description: as §1, §2, §3, §4, §5

T1 sequence (O43914 22-113): as the sequence (O43914 22-113 partner) above

| DAP12 alone (pSyk FOB) (DAP12 alone) [FOB] | R47H TREM2 mutant (pSyk FOB) (R47H TREM2 mutant) [FOB] | Human TREM2 (pSyk FOB) (TREM2) [FOB] | Compound | pSyk FOB [1] [FOB] |
| --- | --- | --- | --- | --- |
| 1.64 | 3.94 | 2.42 | CCCCCCCCCCCCC/C=C/[C@@H](O)[C@@H](N)COP(=O)(O)O [Sphingosine-1-phosphate (SolP), Sphingosine-1-phosphate] | 2.10 |
| 1.32 | 0.85 | 0.67 | CCCCCCCCCCCCC/C=C/[C@@H](O)[C@@H](N)CO [Sphingosine] | 0.96 |
| 1.26 | 0.68 | 0.81 | Oxidized phosphatidylcholine [Oxidized phosphatidylcholine (oxPC)] | 1.25 |
| 1.48 | 2.72 | 2.17 | Phosphatidic acid [Phosphatidic acid (PA)] | 2.17 |
| 1.57 | 4.83 | 3.00 | Phosphatidylethanol [Phosphatidylethanol (PEtOH)] | 1.61 |
| 1.51 | 2.49 | 1.49 | Phosphatidylethanolamine [Phosphatidylethanolamine (PE) or DSPE] | 1.53 |
| 1.40 | 3.77 | 2.25 | Phosphatidylglycerol [Phosphatidylglycerol (PG) or DSPG] | 1.85 |
| 1.04 | 2.27 | 4.31 | Phosphatidylinositol [Phosphatidylinositol (PI)] | 2.09 |
| 1.27 | 2.65 | 2.42 | Phosphatidylserine [Phosphatidylserine (PS)] | 2.09 |
| 1.40 | 2.09 | 1.74 | Sphingomyelin [Sphingomyelin (SM)] | 1.02 |
| 1.21 | 6.34 | 5.02 | Sulfatide | 1.75 |

More lines, now with the values behind:

| Compound | DAP12 alone (pSyk FOB) (DAP12 alone) [FOB] | R47H TREM2 mutant (pSyk FOB) (R47H TREM2 mutant) [FOB] | Human TREM2 (pSyk FOB) (TREM2) [FOB] | pSyk FOB [1] [FOB] |
| --- | --- | --- | --- | --- |
| CCCCCCCCCCCCCCC[C@@H](O)[C@@H](N)COP(=O)(O)O [Sphinganine-1-phosphate (SalP), Sphinganine-1-phosphate] | 1.34 | 5.32 | 3.31 | 1.08 |
| Bis(monoacylglycero)phosphate [Bis(monoacylglycero)phosphate (BMP)] | 1.42 | 3.04 | 4.85 | 2.19 |
| Cardiolipin [Cardiolipin (CL)] | 1.26 | 3.31 | 3.79 | 2.50 |
| Ceramide | 1.30 | 2.21 | 2.20 | 1.44 |
| Ceramide-1-phosphate [Ceramide-1-phosphate (C1P)] | 1.16 | 4.00 | 3.89 | 2.28 |
| Cholesteryl ester [Cholesteryl ester (CE)] | 1.14 | 10.90 | 4.24 | 1.62 |
| Dihydrosphingomyelin [Dihydrosphingomyelin (DhSM)] | 1.40 | 1.93 | 1.59 | 0.96 |
| Ether phosphatidylcholine [Ether phosphatidylcholine (PCe)] | 1.33 | 3.97 | 2.94 | 1.29 |
| Galactosylceramide [Galactosylceramide (GalCer)] | 1.16 | 4.65 | 3.45 | 1.98 |
| Ganglioside GM1 | 0.92 | 4.93 | 4.94 | 1.52 |
| Ganglioside GM3 | 1.14 | 6.05 | 5.82 | 1.17 |
| Lactosylceramide [Lactosylceramide (LacCer)] | 1.27 | 2.06 | 1.89 | 1.29 |
| Lysophosphatidic acid [Lysophosphatidic acid (LPA)] | 1.17 | 3.62 | 3.69 | 1.82 |
| Lysophosphatidylethanolamine [LysophosphatidyLethanolamine (LPE)] | 1.28 | 3.58 | 4.16 | 2.03 |
| Lysophosphatidylglycerol [Lysophosphatidylglycerol (LPG)] | 1.28 | 3.44 | 4.83 | 1.64 |
| Lysophosphatidylinositol [Lysophosphatidylinositol (LPI)] | 1.03 | 0.32 | 1.12 | 1.61 |
| Lysophosphatidylserine [Lysophosphatidylserine (LPS)] | 1.39 | 3.88 | 3.77 | 1.78 |
| N-Acyl-Serine [N-Acyl-Serine (NSer)] | 1.39 | 3.76 | 2.59 | 1.66 |
| Palmitic-acid-9-hydroxy-stearic-acid | 1.27 | 7.31 | 5.87 | 3.94 |
